Reference: patent US20080009418A1, “Selective Inhibitors” (Alchemia LTD., priority 2004, published 2008)

Key:
Human Melanocortin (MC3) = biological target: T1, Human Melanocortin (MC3) (Homo sapiens, UniProt P41968); assay: Radioligand binding, human melanocortin MC3 membranes, FlashPlate, [125I]-NDP-αMSH; conditions: compound at 10 μM, [125I]-NDP-αMSH
T1 construct: purchased Perkin Elmer Biosignal
Outline: (§1)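 Cloned human receptor membranes were coated onto FlashPlate wells and incubated with radioligand and compound (added from a 0.5 mM DMSO daughter plate) for 1 hour at room temperature in the dark. Scintillation counting gave percent inhibition, with DMSO defining total and reference ligand defining non-specific binding.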

[1] = biological target: T2, Human melanin-concentrating hormone (MCH1) (Homo sapiens, UniProt Q99705); assay: Radioligand binding, human melanin-concentrating hormone MCH1 membranes, FlashPlate, [125I]-S36057; conditions: compound at 10 μM
T2 construct: purchased Perkin Elmer Biosignal
T2 sequence (Q99705 whole entry): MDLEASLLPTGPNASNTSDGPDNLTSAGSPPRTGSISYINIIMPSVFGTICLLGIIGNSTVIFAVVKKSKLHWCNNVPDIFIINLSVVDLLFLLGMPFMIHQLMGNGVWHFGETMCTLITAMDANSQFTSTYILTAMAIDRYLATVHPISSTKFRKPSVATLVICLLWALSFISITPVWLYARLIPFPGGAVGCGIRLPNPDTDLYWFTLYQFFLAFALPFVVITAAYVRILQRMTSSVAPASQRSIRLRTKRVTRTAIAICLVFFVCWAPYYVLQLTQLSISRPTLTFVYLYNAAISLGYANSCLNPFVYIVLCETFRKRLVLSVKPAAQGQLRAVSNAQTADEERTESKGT
Outline: as §1

Human melanocortin (MC5) = biological target: T3, Human melanocortin (MC5) (Homo sapiens, UniProt P33032); assay: Radioligand binding, human melanocortin MC5 membranes, FlashPlate, [125I]-NDP-αMSH; conditions: compound at 10 μM, [125I]-NDP-αMSH
T3 construct: purchased Perkin Elmer Biosignal
T3 sequence (P33032 whole entry): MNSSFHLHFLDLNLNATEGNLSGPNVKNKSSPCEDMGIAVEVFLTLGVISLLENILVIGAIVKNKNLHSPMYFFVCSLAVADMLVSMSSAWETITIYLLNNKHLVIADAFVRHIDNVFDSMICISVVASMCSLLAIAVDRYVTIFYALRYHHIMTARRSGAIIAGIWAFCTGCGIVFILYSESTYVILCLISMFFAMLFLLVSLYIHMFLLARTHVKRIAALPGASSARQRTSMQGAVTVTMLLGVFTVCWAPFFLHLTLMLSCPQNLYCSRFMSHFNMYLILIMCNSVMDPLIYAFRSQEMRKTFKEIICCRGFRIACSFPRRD
Outline: as §1

Human opioid (ORL1) = biological target: T4, Human opioid (ORL1) (Homo sapiens, UniProt P41146); assay: Radioligand binding, human opioid ORL1 membranes, FlashPlate, [125I]-Nociceptin; conditions: compound at 10 μM, [125I]-Nociceptin
T4 construct: purchased Perkin Elmer Biosignal
T4 sequence (P41146 whole entry): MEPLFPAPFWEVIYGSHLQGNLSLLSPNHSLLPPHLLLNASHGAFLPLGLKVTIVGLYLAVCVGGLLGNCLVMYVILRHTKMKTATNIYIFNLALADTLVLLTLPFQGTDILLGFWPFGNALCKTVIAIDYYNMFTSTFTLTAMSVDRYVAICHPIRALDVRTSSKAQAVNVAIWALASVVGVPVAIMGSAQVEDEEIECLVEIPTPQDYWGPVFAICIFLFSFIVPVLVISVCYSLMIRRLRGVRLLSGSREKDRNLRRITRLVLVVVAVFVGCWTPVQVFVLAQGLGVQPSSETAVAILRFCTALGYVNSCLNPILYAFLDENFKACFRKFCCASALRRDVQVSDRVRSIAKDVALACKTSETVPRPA
Outline: as §1

Human δ-opioid (DOP) = biological target: T5, Human δ-opioid (DOP) (Homo sapiens, UniProt P41143); assay: Radioligand binding, human δ-opioid (DOP) membranes, FlashPlate, [3H]-Bremazocine; conditions: compound at 10 μM, [3H]-Bremazocine
T5 construct: purchased Perkin Elmer Biosignal
T5 sequence (P41143 whole entry): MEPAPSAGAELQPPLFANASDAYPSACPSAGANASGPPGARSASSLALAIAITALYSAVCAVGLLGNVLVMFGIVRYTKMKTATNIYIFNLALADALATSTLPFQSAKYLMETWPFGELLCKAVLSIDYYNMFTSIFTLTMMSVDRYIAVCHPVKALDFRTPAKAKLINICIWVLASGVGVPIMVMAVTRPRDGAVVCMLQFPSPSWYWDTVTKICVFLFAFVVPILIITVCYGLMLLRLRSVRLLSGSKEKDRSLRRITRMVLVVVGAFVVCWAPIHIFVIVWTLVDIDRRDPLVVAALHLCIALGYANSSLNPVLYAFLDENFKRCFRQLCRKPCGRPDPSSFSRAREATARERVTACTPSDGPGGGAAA
Outline: as §1

Human κ-Opioid (KOP) = biological target: T6, Human κ-Opioid (KOP) (Homo sapiens, UniProt P41145); assay: Radioligand binding, human κ-opioid (KOP) membranes, filtration, [3H]-Diprenorphine; conditions: compound at 10 μM, [3H]-Diprenorphine
T6 construct: purchased Perkin Elmer Biosignal
T6 sequence (P41145 whole entry): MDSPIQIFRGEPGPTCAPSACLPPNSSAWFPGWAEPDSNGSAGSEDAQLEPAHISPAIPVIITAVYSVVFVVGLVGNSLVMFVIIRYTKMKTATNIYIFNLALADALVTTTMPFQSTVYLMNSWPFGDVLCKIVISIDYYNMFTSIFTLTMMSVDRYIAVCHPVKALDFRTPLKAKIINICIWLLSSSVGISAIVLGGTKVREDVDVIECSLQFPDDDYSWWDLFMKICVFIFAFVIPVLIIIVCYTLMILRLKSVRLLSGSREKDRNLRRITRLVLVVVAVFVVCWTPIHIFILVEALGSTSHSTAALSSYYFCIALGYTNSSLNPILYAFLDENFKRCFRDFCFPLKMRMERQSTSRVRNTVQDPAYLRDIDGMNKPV
Outline: (§2)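 Membranes from cloned human receptors were incubated with compound and radioligand for 1 hour at room temperature. Bound ligand was collected on 0.3% PEI-soaked filters, washed with cold 50 mM Tris-HCl pH 7.4, and counted by scintillation. Percent inhibition was computed against DMSO totals and reference-ligand nonspecific wells.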

Human μ-opioid (MOP) = biological target: T7, Human μ-opioid (MOP) (Homo sapiens, UniProt P35372); assay: Radioligand binding, human μ-opioid (MOP) membranes, FlashPlate, [3H]-Naloxone; conditions: compound at 10 μM, [3H]-Naloxone
T7 construct: purchased Perkin Elmer Biosignal
T7 sequence (P35372 whole entry): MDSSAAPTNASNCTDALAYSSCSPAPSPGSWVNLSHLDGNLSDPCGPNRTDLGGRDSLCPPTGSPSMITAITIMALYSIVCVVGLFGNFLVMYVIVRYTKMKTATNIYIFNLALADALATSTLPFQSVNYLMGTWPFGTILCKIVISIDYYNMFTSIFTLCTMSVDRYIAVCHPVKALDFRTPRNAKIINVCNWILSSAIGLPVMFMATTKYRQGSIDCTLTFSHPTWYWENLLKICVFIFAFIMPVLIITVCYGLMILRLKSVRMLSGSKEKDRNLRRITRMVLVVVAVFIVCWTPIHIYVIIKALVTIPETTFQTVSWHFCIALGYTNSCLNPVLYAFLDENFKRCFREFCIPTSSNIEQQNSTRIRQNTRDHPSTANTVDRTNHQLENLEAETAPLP
Outline: as §1

Human neurokinin (NK1) = biological target: T8, Human neurokinin (NK1) (Homo sapiens, UniProt P25103); assay: Radioligand binding, human neurokinin NK1 membranes, filtration, [125I]-Substance P; conditions: compound at 10 μM, [125I]-Substance P
T8 construct: purchased Perkin Elmer Biosignal
T8 sequence (P25103 whole entry): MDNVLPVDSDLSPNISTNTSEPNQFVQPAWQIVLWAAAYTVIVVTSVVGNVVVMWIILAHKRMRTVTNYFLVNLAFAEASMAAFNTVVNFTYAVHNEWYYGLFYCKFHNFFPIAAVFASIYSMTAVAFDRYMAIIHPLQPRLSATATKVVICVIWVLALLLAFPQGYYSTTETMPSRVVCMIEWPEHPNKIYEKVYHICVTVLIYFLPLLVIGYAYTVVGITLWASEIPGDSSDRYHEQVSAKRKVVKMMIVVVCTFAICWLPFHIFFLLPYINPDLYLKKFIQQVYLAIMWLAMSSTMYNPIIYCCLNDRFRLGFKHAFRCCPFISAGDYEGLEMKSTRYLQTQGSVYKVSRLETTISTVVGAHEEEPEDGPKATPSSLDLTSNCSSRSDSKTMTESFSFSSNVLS
Outline: as §2

Mouse urotensin (mUR2) = biological target: T9, Mouse urotensin (mUR2) (Mus musculus, UniProt Q8VIH9); assay: Radioligand binding, mouse urotensin mUR2 membranes, FlashPlate, [125I]-Urotensin II; conditions: compound at 10 μM, [125I]-Urotensin II
T9 construct: purchased Perkin Elmer Biosignal
T9 sequence (Q8VIH9 1-385): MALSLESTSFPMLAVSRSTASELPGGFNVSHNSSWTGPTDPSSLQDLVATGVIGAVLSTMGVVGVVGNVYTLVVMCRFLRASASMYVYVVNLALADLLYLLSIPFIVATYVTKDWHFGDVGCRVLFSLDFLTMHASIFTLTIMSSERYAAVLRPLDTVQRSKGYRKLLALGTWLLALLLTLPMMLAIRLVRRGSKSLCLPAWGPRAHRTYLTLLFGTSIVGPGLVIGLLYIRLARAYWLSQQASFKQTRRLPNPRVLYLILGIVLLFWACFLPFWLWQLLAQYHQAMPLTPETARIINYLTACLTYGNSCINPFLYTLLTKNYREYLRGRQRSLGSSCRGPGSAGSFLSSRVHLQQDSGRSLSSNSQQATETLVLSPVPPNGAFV
Outline: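 Cloned mouse urotensin (mUR2) receptor membranes from Perkin Elmer Biosignal were immobilized in FlashPlate microplates using a proprietary coating. Each well got 19.5 μl buffer, then 0.5 μl of DMSO, reference ligand, or compound. Adding 5 μl of [125I]-Urotensin II, diluted to 5× final concentration in binding buffer, started binding. Plates were sealed with TopSeal-A and incubated 1 hour at room temperature in the dark. Wells were counted for 30 seconds each on a TopCount after a 60-second delay, and percentage inhibition was calculated.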

Human Melanocortin (MC4) = biological target: T10, Human Melanocortin (MC4) (Homo sapiens, UniProt P32245); assay: Radioligand binding, human melanocortin MC4 membranes, FlashPlate, [125I]-NDP-αMSH; conditions: compound at 10 μM, [125I]-NDP-αMSH
T10 construct: purchased Perkin Elmer Biosignal
T10 sequence (P32245 whole entry): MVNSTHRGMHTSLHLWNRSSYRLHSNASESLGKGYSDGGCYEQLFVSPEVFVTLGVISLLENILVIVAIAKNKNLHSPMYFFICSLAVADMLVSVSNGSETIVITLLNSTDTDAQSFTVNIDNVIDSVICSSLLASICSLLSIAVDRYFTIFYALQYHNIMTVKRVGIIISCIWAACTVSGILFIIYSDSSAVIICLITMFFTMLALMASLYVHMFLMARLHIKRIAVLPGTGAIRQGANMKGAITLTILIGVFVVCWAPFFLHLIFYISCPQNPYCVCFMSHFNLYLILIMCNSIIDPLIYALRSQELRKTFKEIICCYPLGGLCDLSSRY
Outline: as §1

[2] = biological target: T11, Human neuropeptide Y (NPY-Y1) (Homo sapiens, UniProt P25929); assay: Radioligand binding, human neuropeptide Y NPY-Y1 membranes, FlashPlate, [125I]-PYY; conditions: compound at 10 μM, [125I]-PYY
T11 construct: purchased Perkin Elmer Biosignal
T11 sequence (P25929 1-384): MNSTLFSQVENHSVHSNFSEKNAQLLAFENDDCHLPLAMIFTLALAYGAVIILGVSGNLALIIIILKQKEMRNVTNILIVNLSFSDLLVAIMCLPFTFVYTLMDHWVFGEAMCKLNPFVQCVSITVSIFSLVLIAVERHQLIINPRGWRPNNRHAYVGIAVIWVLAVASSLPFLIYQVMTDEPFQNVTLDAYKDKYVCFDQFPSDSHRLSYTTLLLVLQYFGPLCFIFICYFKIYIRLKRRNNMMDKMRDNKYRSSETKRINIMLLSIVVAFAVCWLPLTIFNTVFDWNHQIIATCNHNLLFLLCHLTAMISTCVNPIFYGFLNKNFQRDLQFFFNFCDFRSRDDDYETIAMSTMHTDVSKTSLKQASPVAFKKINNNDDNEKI
Outline: as §1

T1 sequence (P41968 whole entry): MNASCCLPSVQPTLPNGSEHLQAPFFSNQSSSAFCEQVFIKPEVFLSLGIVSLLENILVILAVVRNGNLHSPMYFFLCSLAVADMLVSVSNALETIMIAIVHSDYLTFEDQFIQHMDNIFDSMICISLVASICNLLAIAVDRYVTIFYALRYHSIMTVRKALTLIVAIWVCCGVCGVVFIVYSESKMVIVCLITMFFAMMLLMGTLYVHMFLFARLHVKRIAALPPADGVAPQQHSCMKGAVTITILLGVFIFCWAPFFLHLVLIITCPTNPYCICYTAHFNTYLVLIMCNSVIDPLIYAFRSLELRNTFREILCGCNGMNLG

Structure (SMILES)	A3 radioligand binding, percentage inhibition (Human Melanocortin (MC3))	A6 radioligand binding, percentage inhibition ([1]; [125I]-S36057)	A5 radioligand binding, percentage inhibition (Human melanocortin (MC5))	A10 radioligand binding, percentage inhibition (Human opioid (ORL1))	A1 radioligand binding, percentage inhibition (Human δ-opioid (DOP))	A2 radioligand binding, percentage inhibition (Human κ-Opioid (KOP))	A7 radioligand binding, percentage inhibition (Human μ-opioid (MOP))	A8 radioligand binding, percentage inhibition (Human neurokinin (NK1))	A11 radioligand binding, percentage inhibition (Mouse urotensin (mUR2))	A4 radioligand binding, percentage inhibition (Human Melanocortin (MC4))	A9 radioligand binding, percentage inhibition [2]	other results
NCCC(=O)NC1C(OCc2ccc(Cl)cc2)OC(COCc2ccccc2)C(O)C1OCc1ccc(Cl)cc1 (single isomer, unassigned) [compound 473]	–	–	–	–	–	–	–	–	–	–	–	A3: inhibition of radioligand binding (Human Melanocortin (MC3); human MC3 membranes): − (“−” indicates less than 50% inhibition at 10 μM); A6: inhibition of radioligand binding ([1]; [125I]-S36057, human MCH1 membranes, 10 µM): + (“+” indicates greater than 50% inhibition at 10 μM); A5: inhibition of radioligand binding (Human melanocortin (MC5); human MC5 membranes, 10 µM): + (“+” indicates greater than 50% inhibition at 10 μM); A10: inhibition of radioligand binding (Human opioid (ORL1); human ORL1 membranes, 10 µM): − (“−” indicates less than 50% inhibition at 10 μM); A1: inhibition of radioligand binding (Human δ-opioid (DOP); human DOP membranes): − (“−” indicates less than 50% inhibition at 10 μM); A2: inhibition of radioligand binding (Human κ-Opioid (KOP); human KOP membranes): − (“−” indicates less than 50% inhibition at 10 μM); A7: inhibition of radioligand binding (Human μ-opioid (MOP); human MOP membranes, 10 µM): + (“+” indicates greater than 50% inhibition at 10 μM); A8: inhibition of radioligand binding (Human neurokinin (NK1); human NK1 membranes): + (“+” indicates greater than 50% inhibition at 10 μM); A11: inhibition of radioligand binding (Mouse urotensin (mUR2); mouse mUR2 membranes): − (“−” indicates less than 50% inhibition at 10 μM); A4: inhibition of radioligand binding (Human Melanocortin (MC4); human MC4 membranes): − (“−” indicates less than 50% inhibition at 10 μM); A9: inhibition of radioligand binding ([2]; human NPY-Y1 membranes): − (“−” indicates less than 50% inhibition at 10 μM)
COC[C@H]1OC(OCc2ccc(Cl)cc2)[C@H](NC(=O)CCCNC(=N)N)[C@@H](OCc2cccc(O)c2)[C@@H]1O (stereo partly shown) [compound 139]	− (“−” indicates less than 50% inhibition at 10 μM)	+ (“+” indicates greater than 50% inhibition at 10 μM)	− (“−” indicates less than 50% inhibition at 10 μM)	− (“−” indicates less than 50% inhibition at 10 μM)	− (“−” indicates less than 50% inhibition at 10 μM)	− (“−” indicates less than 50% inhibition at 10 μM)	+ (“+” indicates greater than 50% inhibition at 10 μM)	− (“−” indicates less than 50% inhibition at 10 μM)	− (“−” indicates less than 50% inhibition at 10 μM)	− (“−” indicates less than 50% inhibition at 10 μM)	− (“−” indicates less than 50% inhibition at 10 μM)	–
COC[C@H]1OC(OCc2ccc(-c3ccccc3)cc2)[C@H](NC(=O)CCCNC(=N)N)[C@@H](OCc2ccc(-c3ccccc3)cc2)[C@@H]1O (single isomer, unassigned) [compound 336]	–	–	–	–	–	–	–	–	–	–	–	A3: inhibition of radioligand binding, human melanocortin (MC3) (Human Melanocortin (MC3); 10 µM): − (“−” indicates less than 50% inhibition at 10 μM); A6: inhibition of radioligand binding, human melanin-concentrating hormone (MCH1) ([1]; [125I]-S36057): + (“+” indicates greater than 50% inhibition at 10 μM); A5: inhibition of radioligand binding, human melanocortin (MC5) (Human melanocortin (MC5)): + (“+” indicates greater than 50% inhibition at 10 μM); A10: inhibition of radioligand binding, human opioid (ORL1) (Human opioid (ORL1)): − (“−” indicates less than 50% inhibition at 10 μM); A1: inhibition of radioligand binding, human δ-opioid (DOP) (Human δ-opioid (DOP); 10 µM): − (“−” indicates less than 50% inhibition at 10 μM); A2: inhibition of radioligand binding, human κ-opioid (KOP) (Human κ-Opioid (KOP); 10 µM): − (“−” indicates less than 50% inhibition at 10 μM); A7: inhibition of radioligand binding, human μ-opioid (MOP) (Human μ-opioid (MOP); 10 µM): − (“−” indicates less than 50% inhibition at 10 μM); A8: inhibition of radioligand binding, human neurokinin (NK1) (Human neurokinin (NK1)): + (“+” indicates greater than 50% inhibition at 10 μM); A11: inhibition of radioligand binding, mouse urotensin (mUR2) (Mouse urotensin (mUR2)): − (“−” indicates less than 50% inhibition at 10 μM); A4: inhibition of radioligand binding, human melanocortin (MC4) (Human Melanocortin (MC4)): + (“+” indicates greater than 50% inhibition at 10 μM); A9: inhibition of radioligand binding, human neuropeptide Y (NPY-Y1) [2]: − (“−” indicates less than 50% inhibition at 10 μM)
CO[C@H]1[C@H](O)[C@@H](COCc2ccc(-c3ccccc3)cc2)OC(OCc2cccc(O)c2)[C@@H]1NC(=O)CCNC(=N)N (stereo partly shown) [compound 163]	+ (“+” indicates greater than 50% inhibition at 10 μM)	− (“−” indicates less than 50% inhibition at 10 μM)	+ (“+” indicates greater than 50% inhibition at 10 μM)	− (“−” indicates less than 50% inhibition at 10 μM)	− (“−” indicates less than 50% inhibition at 10 μM)	− (“−” indicates less than 50% inhibition at 10 μM)	− (“−” indicates less than 50% inhibition at 10 μM)	+ (“+” indicates greater than 50% inhibition at 10 μM)	− (“−” indicates less than 50% inhibition at 10 μM)	+ (“+” indicates greater than 50% inhibition at 10 μM)	− (“−” indicates less than 50% inhibition at 10 μM)	–
CO[C@H]1[C@H](O)[C@@H](COCc2ccc(Cl)cc2)OC(OCCc2ccccc2)[C@@H]1NC(=O)CCNC(=N)N (stereo partly shown) [compound 120]	− (“−” indicates less than 50% inhibition at 10 μM)	− (“−” indicates less than 50% inhibition at 10 μM)	+ (“+” indicates greater than 50% inhibition at 10 μM)	− (“−” indicates less than 50% inhibition at 10 μM)	− (“−” indicates less than 50% inhibition at 10 μM)	+ (“+” indicates greater than 50% inhibition at 10 μM)	− (“−” indicates less than 50% inhibition at 10 μM)	+ (“+” indicates greater than 50% inhibition at 10 μM)	− (“−” indicates less than 50% inhibition at 10 μM)	+ (“+” indicates greater than 50% inhibition at 10 μM)	− (“−” indicates less than 50% inhibition at 10 μM)	–
